# Measured values reported in US20100267561A1, “HERBICIDAL PYRIDAZINONE DERIVATIVES” (priority 2007, published 2010).
# Key:
# Assay type in all cases: in vivo
# [1] = test system: giant foxtail (Setaria faberi); assay: Test A pre-/postemergence plant response
# Summary of the method: (§1)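 Soil: loam blended with sand. Formulation: non-phytotoxic solvent mixture plus surfactant, applied as preemergence directed soil spray and as postemergence spray. Scoring: visual, 0 no effect to 100 complete control, roughly 10 days post-treatment in greenhouse.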
# [2] = test system: large crabgrass (Digitaria sanguinalis); assay: Test A pre-/postemergence plant response
# Summary of the method: as §1
# [3] = test system: velvetleaf (Abutilon theophrasti); assay: Test A pre-/postemergence plant response
# Summary of the method: as §1
# [4] = test system: Italian ryegrass (Lolium multiflorum); assay: Test C pre-/postemergence plant response; settings: Preemergence
# Summary of the method: (§2)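 Formulated in a surfactant-containing non-phytotoxic solvent, compounds were tested under controlled growth conditions as preemergence and postemergence treatments. Ratings from 0 (no effect) to 100 (complete control) were assigned visually relative to controls 15 to 25 days later.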
# [5] = test system: annual bluegrass (Poa annua); assay: Test C pre-/postemergence plant response; settings: Preemergence
# Summary of the method: as §2
# [6] = test system: blackgrass (Alopecurus myosuroides); assay: Test C pre-/postemergence plant response; settings: Preemergence
# Summary of the method: as §2
# [7] = test system: canarygrass (Phalaris minor); assay: Test C pre-/postemergence plant response; settings: Preemergence
# Summary of the method: as §2
# [8] = test system: downy bromegrass (Bromus tectorum); assay: Test C pre-/postemergence plant response; settings: Preemergence
# Summary of the method: as §2
# [9] = test system: green foxtail (Setaria viridis); assay: Test C pre-/postemergence plant response; settings: Preemergence
# Summary of the method: as §2
# [10] = test system: spring barley (Hordeum vulgare); assay: Test C pre-/postemergence plant response; settings: Preemergence
# Summary of the method: as §2
# [11] = test system: wild mustard (Sinapis arvensis); assay: Test C pre-/postemergence plant response; settings: Preemergence
# Summary of the method: as §2
# wild oat (Avena fatua) = assay: Test C pre-/postemergence plant response; settings: Preemergence
# Summary of the method: as §2
# [12] = test system: windgrass (Apera spica-venti); assay: Test C pre-/postemergence plant response; settings: Preemergence
# Summary of the method: as §2
# [13] = test system: winter barley (Hordeum vulgare); assay: Test C pre-/postemergence plant response; settings: Preemergence
# Summary of the method: as §2
# [14] = test system: winter wheat (Triticum aestivum); assay: Test C pre-/postemergence plant response; settings: Preemergence
# Summary of the method: as §2
# [15] = Postemergence, 31 g ai/ha, 0 to 100 scale, 0 no effect, 100 complete control
# [16] = Postemergence, 125 g ai/ha, 0 to 100 scale, 0 no effect, 100 complete control
# [17] = Preemergence, 31 g ai/ha, 0 to 100 scale, 0 is no effect, 100 is complete control
# [18] = Preemergence, 125 g ai/ha, 0 to 100 scale (0 no effect, 100 complete control)
# [19] = 8 g ai/ha, scale 0 to 100 (0 no effect, 100 complete control)
# [20] = 16 g ai/ha, scale 0 to 100 (0 no effect, 100 complete control)
# [21] = 31 g ai/ha, scale 0 to 100 (0 no effect, 100 complete control)
# [22] = 62 g ai/ha, scale 0 to 100, 0 no effect, 100 complete control
smiles,measurement,setting,value
Cc1cc(-c2ccc(Cl)cc2)nn1-c1c(OC(=O)Oc2ccccc2)cnn(C)c1=O [Compound 54],"Plant response rating, Foxtail, Giant",[1]; [15],90
same,"Plant response rating, Foxtail, Giant",[1]; [16],100
same,"Plant response rating, Foxtail, Giant",[1]; [17],90
same,"Plant response rating, Foxtail, Giant",[1]; [18],100
same,"Plant response rating, Crabgrass, Large",[2]; [15],70
same,"Plant response rating, Crabgrass, Large",[2]; [16],90
same,"Plant response rating, Crabgrass, Large",[2]; [17],60
same,"Plant response rating, Crabgrass, Large",[2]; [18],100
same,"Plant response rating, Velvetleaf",[3]; [15],0
same,"Plant response rating, Velvetleaf",[3]; [16],0
same,"Plant response rating, Velvetleaf",[3]; [17],0
same,"Plant response rating, Velvetleaf",[3]; [18],0
same,"Plant response rating, Ryegrass, Italian",[4]; [19],0
same,"Plant response rating, Ryegrass, Italian",[4]; [20],20
same,"Plant response rating, Ryegrass, Italian",[4]; [21],100
same,"Plant response rating, Ryegrass, Italian",[4]; [22],100
same,"Plant response rating, Bluegrass",[5]; [19],0
same,"Plant response rating, Bluegrass",[5]; [20],0
same,"Plant response rating, Bluegrass",[5]; [21],0
same,"Plant response rating, Bluegrass",[5]; [22],25
same,"Plant response rating, Blackgrass",[6]; [19],35
same,"Plant response rating, Blackgrass",[6]; [20],70
same,"Plant response rating, Blackgrass",[6]; [21],100
same,"Plant response rating, Blackgrass",[6]; [22],100
same,"Plant response rating, Canarygrass",[7]; [19],0
same,"Plant response rating, Canarygrass",[7]; [20],70
same,"Plant response rating, Canarygrass",[7]; [21],80
same,"Plant response rating, Canarygrass",[7]; [22],95
same,"Plant response rating, Bromegrass, Downy",[8]; [19],0
same,"Plant response rating, Bromegrass, Downy",[8]; [20],0
same,"Plant response rating, Bromegrass, Downy",[8]; [21],15
same,"Plant response rating, Bromegrass, Downy",[8]; [22],80
same,"Plant response rating, Foxtail, Green",[9]; [19],40
same,"Plant response rating, Foxtail, Green",[9]; [20],98
same,"Plant response rating, Foxtail, Green",[9]; [21],100
same,"Plant response rating, Foxtail, Green",[9]; [22],100
same,"Plant response rating, Barley, Spring",[10]; [19],0
same,"Plant response rating, Barley, Spring",[10]; [20],0
same,"Plant response rating, Barley, Spring",[10]; [21],25
same,"Plant response rating, Barley, Spring",[10]; [22],70
same,"Plant response rating, Mustard, Wild",[11]; [20],0
same,"Plant response rating, Mustard, Wild",[11]; [21],0
same,"Plant response rating, Mustard, Wild",[11]; [22],0
same,"Plant response rating, Oat, Wild",wild oat (Avena fatua); [19],0
same,"Plant response rating, Oat, Wild",wild oat (Avena fatua); [20],0
same,"Plant response rating, Oat, Wild",wild oat (Avena fatua); [21],40
same,"Plant response rating, Oat, Wild",wild oat (Avena fatua); [22],70
same,"Plant response rating, Windgrass",[12]; [19],0
same,"Plant response rating, Windgrass",[12]; [20],0
same,"Plant response rating, Windgrass",[12]; [21],60
same,"Plant response rating, Windgrass",[12]; [22],75
same,"Plant response rating, Barley, Winter",[13]; [19],0
same,"Plant response rating, Barley, Winter",[13]; [20],10
same,"Plant response rating, Barley, Winter",[13]; [21],15
same,"Plant response rating, Barley, Winter",[13]; [22],75
same,"Plant response rating, Wheat, Winter",[14]; [19],0
same,"Plant response rating, Wheat, Winter",[14]; [20],0
same,"Plant response rating, Wheat, Winter",[14]; [21],35
same,"Plant response rating, Wheat, Winter",[14]; [22],50
Cc1cc(-c2ccc(Cl)cc2)nn1-c1c(OS(=O)(=O)c2ccc(Cl)s2)cnn(C)c1=O [Compound 55],"Plant response rating, Foxtail, Giant",[1]; [15],20
same,"Plant response rating, Foxtail, Giant",[1]; [16],70
same,"Plant response rating, Foxtail, Giant",[1]; [17],80
same,"Plant response rating, Foxtail, Giant",[1]; [18],90
same,"Plant response rating, Crabgrass, Large",[2]; [15],10
same,"Plant response rating, Crabgrass, Large",[2]; [16],60
same,"Plant response rating, Crabgrass, Large",[2]; [17],20
same,"Plant response rating, Crabgrass, Large",[2]; [18],80
same,"Plant response rating, Velvetleaf",[3]; [15],0
same,"Plant response rating, Velvetleaf",[3]; [16],0
same,"Plant response rating, Velvetleaf",[3]; [17],0
same,"Plant response rating, Velvetleaf",[3]; [18],0
same,"Plant response rating, Ryegrass, Italian",[4]; [19],0
same,"Plant response rating, Ryegrass, Italian",[4]; [20],0
same,"Plant response rating, Ryegrass, Italian",[4]; [22],90
same,"Plant response rating, Bluegrass",[5]; [19],0
same,"Plant response rating, Bluegrass",[5]; [20],0
same,"Plant response rating, Bluegrass",[5]; [21],0
same,"Plant response rating, Bluegrass",[5]; [22],15
same,"Plant response rating, Blackgrass",[6]; [20],40
same,"Plant response rating, Blackgrass",[6]; [21],80
same,"Plant response rating, Blackgrass",[6]; [22],95
same,"Plant response rating, Canarygrass",[7]; [19],0
same,"Plant response rating, Canarygrass",[7]; [20],0
same,"Plant response rating, Canarygrass",[7]; [21],20
same,"Plant response rating, Canarygrass",[7]; [22],90
same,"Plant response rating, Bromegrass, Downy",[8]; [19],0
same,"Plant response rating, Bromegrass, Downy",[8]; [20],0
same,"Plant response rating, Bromegrass, Downy",[8]; [21],0
same,"Plant response rating, Bromegrass, Downy",[8]; [22],40
same,"Plant response rating, Foxtail, Green",[9]; [19],20
same,"Plant response rating, Foxtail, Green",[9]; [20],40
same,"Plant response rating, Foxtail, Green",[9]; [21],100
same,"Plant response rating, Foxtail, Green",[9]; [22],100
same,"Plant response rating, Barley, Spring",[10]; [19],0
same,"Plant response rating, Barley, Spring",[10]; [20],0
same,"Plant response rating, Barley, Spring",[10]; [21],0
same,"Plant response rating, Barley, Spring",[10]; [22],70
same,"Plant response rating, Mustard, Wild",[11]; [19],0
same,"Plant response rating, Mustard, Wild",[11]; [20],0
same,"Plant response rating, Mustard, Wild",[11]; [21],0
same,"Plant response rating, Mustard, Wild",[11]; [22],0
same,"Plant response rating, Oat, Wild",wild oat (Avena fatua); [19],0
same,"Plant response rating, Oat, Wild",wild oat (Avena fatua); [20],0
same,"Plant response rating, Oat, Wild",wild oat (Avena fatua); [21],0
same,"Plant response rating, Oat, Wild",wild oat (Avena fatua); [22],65
same,"Plant response rating, Windgrass",[12]; [19],0
same,"Plant response rating, Windgrass",[12]; [20],0
same,"Plant response rating, Windgrass",[12]; [21],0
same,"Plant response rating, Windgrass",[12]; [22],60
same,"Plant response rating, Barley, Winter",[13]; [19],0
same,"Plant response rating, Barley, Winter",[13]; [20],0
same,"Plant response rating, Barley, Winter",[13]; [21],0
same,"Plant response rating, Barley, Winter",[13]; [22],60
same,"Plant response rating, Wheat, Winter",[14]; [19],0
same,"Plant response rating, Wheat, Winter",[14]; [20],0
same,"Plant response rating, Wheat, Winter",[14]; [21],0
same,"Plant response rating, Wheat, Winter",[14]; [22],60
